Test results as given in patent US20230381273A1, “NANOPARTICLE IN WHICH ANTIBACTERIAL PEPTIDE IS ENCAPSULATED WITH CHITOSAN AND USE THEREOF” (NATIONAL MARINE BIODIVERSITY INSTITUTE OF KOREA, priority 2022, published 2023).
Converted amounts (≈) assume the structure as drawn. Peptide text beside a SMILES is read from it.

Columns and labels:
Type in all cases: cell-based
[1] = MTT cell viability assay (cytotoxicity); details: human, HEK293 cells
Procedure: After treating HEK293 cells with octominin-CNP and octominin, MTT (3-(4,5-dimethylthiazol-2-yl)-2,5-diphenyltetrazolium bromide) assay was performed to confirm cell viability.
First, HEK293 cells were cultured using DMEM (Dulbecco's modified Eagle's medium (Sigma-Aldrich, Munich, Germany)) containing 10% (v/v) fetal bovine serum (FBS, (Sigma-Aldrich, Munich, Germany)) and antibiotic-antimycotic (Thermo Fisher Scientific, Waltham, MA, USA). In addition, it was cultured for 24 hours under humidified conditions of 5% CO2 and 37° C. The cells were collected and seeded in a 96-well microplate at a cell density of 2.0×10^5 cells/mL (100 μL/well) and allowed to adhere to the well for 12 hours. The culture medium was then replaced, and they were treated with octominin-CNP (0 to 400 μg/mL) or octominin (0 to 400 μg/mL). After 24 hours of culture, the culture medium was replaced with fresh medium (90 μL), and 10 μL of MTT ([…]) was added to each well, followed by incubation at 37° C. for 4 hours. Then, 50 μL of DMSO was added to the wells in which the culture medium was eradicated to solubilize the resulting formazan dye. Their absorbances were measured at 595 nm using a microplate spectrophotometer (Bio-Rad, Saint Louis, (MO, USA)).

Acinetobacter baumannii = system: Acinetobacter baumannii
Procedure: (§1) Prior to confirming the antibacterial and antifungal activity of octominin-CNP or free octominin, for the antibacterial activity of octominin against Acinetobacter baumannii (A. baumannii) through preliminary analysis, it was confirmed that minimum inhibitory concentration (MIC) was 5 μg/mL, and the minimum bactericidal concentration (MBC) was 10 μg/mL. In addition, for the antifungal activity against Candida albicans (C. albicans), it was confirmed that the MIC was 50 μg/mL and the minimum fungicidal concentration (MFC) was 200 μg/mL. Accordingly, the antibacterial and antifungal activities of octominin-CNP and free octominin against A. baumannii and C. albicans were confirmed at the MIC and MBC/MFC peptide concentrations.

Candida albicans = system: Candida albicans
Procedure: as §1

CC[C@H](C)[C@H](NC(=O)[C@H](C)NC(=O)[C@H](CCCCN)NC(=O)CNC(=O)[C@H](C)NC(=O)[C@H](Cc1c[nH]cn1)NC(=O)[C@@H](NC(=O)[C@H](C)NC(=O)CNC(=O)[C@H](CCCNC(=N)N)NC(=O)[C@@H](NC(=O)[C@H](CC(C)C)NC(=O)[C@H](Cc1c[nH]c2ccccc12)NC(=O)CN)[C@@H](C)CC)[C@@H](C)CC)C(=O)N[C@@H](Cc1c[nH]cn1)C(=O)NCC(=O)N[C@@H](CC(C)C)C(=O)N[C@H](C(=O)N[C@@H](Cc1c[nH]cn1)C(=O)N[C@@H](CCCNC(=N)N)C(=O)N[C@@H](CCCNC(=N)N)C(=O)N[C@@H](CCCNC(=N)N)C(=O)N[C@@H](Cc1c[nH]cn1)C(=O)O)[C@@H](C)CC [octominin] (H-GWLIRGAIHAGKAIHGLIHRRRH-OH)
viability at 24 h, 400 µg/mL [1]: 85.2%
minimum bactericidal concentration (MBC) (Acinetobacter baumannii): 10 mg/L (≈ 3.81 µM)
minimum inhibitory concentration (MIC) (Acinetobacter baumannii): 5 mg/L (≈ 1.9 µM)
MIC (Candida albicans): 50 mg/L (≈ 19 µM)
minimum fungicidal concentration (MFC) (Candida albicans): 200 mg/L (≈ 76.2 µM)
